ChEMBL document CHEMBL5230146, “Crystal Structures of Metallo-β-Lactamase (IMP-1) and Its D120E Mutant in Complexes with Citrate and the Inhibitory Effect of the Benzyl Group in Citrate Monobenzyl Ester” (J Med Chem, 2021)
pIC50: −log10 of the molar value. Calls of active or inactive are those of the source. The calls are words filed in the database; no cut-off is given here.

Tests used:
[1] = target: Metallo-beta-lactamase type 2 (Serratia marcescens) (UniProt P52699); experiment: Inhibition of Serratia marcescens IMP-1 expressed in Escherichia coli BL21 (DE3) at 5 mM using cephalothin as substrate preincubated for 5 mins followed by substrate addition
Sequence of Metallo-beta-lactamase type 2 (Serratia marcescens) (P52699 19-246 limits assumed): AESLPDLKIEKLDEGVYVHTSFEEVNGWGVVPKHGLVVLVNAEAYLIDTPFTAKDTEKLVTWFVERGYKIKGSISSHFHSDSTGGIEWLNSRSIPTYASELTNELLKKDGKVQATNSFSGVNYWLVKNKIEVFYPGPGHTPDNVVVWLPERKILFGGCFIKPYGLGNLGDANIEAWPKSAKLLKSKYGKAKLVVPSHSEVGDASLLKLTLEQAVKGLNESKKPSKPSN

[2] = target: Metallo-beta-lactamase type 2 (Serratia marcescens) (UniProt P52699); experiment: Inhibition of Serratia marcescens IMP-1 expressed in Escherichia coli BL21 (DE3) at 5 mM using cephalothin as substrate preincubated for 5 mins followed by substrate addition relative to control
[3] = target: Metallo-beta-lactamase type 2 (Serratia marcescens, UniProt P52699); experiment: Inhibition of Serratia marcescens IMP-1 expressed in Escherichia coli BL21 (DE3) using cephalothin as substrate preincubated for 5 mins followed by substrate addition relative to citrate
Sequence of Metallo-beta-lactamase type 2 (P52699 whole entry): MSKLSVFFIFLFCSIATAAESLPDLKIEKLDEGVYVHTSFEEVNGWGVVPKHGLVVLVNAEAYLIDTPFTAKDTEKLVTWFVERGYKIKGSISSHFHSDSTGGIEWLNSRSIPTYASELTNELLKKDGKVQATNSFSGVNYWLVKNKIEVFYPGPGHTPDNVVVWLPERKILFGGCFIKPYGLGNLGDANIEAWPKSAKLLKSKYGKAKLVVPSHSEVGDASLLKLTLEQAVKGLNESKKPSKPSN

| Compound | inhibition [1] | inhibition [2] [%] | pIC50 [3] |
| --- | --- | --- | --- |
| O=C(O)CC(O)(CC(=O)O)C(=O)O | inactive | – | – |
| O=C(O)CC(O)(CC(=O)OCc1ccccc1)C(=O)O (stereo not drawn) | – | 30 | < 2.30 |
